Assay results reported in publication PMC3282081, “A Modular Strategy to Prepare Multivalent Inhibitors of Prostate-Specific Membrane Antigen (PSMA)” (Oncotarget, 2011).
Several values for one entry are separate records, joined by “and”; a condition that tells them apart may be missing. Identical values can stand only once. Like-named read-outs stand apart in the source and are kept apart here.

Key:
PSMA [1] = target: T1, PSMA (Homo sapiens, UniProt Q04609); design: method as in earlier work; details: separate previous experiment; cited from earlier work
T1 construct: endogenous in cells; host or cells: LNCaP cell lysate
T1 sequence (Q04609 whole entry): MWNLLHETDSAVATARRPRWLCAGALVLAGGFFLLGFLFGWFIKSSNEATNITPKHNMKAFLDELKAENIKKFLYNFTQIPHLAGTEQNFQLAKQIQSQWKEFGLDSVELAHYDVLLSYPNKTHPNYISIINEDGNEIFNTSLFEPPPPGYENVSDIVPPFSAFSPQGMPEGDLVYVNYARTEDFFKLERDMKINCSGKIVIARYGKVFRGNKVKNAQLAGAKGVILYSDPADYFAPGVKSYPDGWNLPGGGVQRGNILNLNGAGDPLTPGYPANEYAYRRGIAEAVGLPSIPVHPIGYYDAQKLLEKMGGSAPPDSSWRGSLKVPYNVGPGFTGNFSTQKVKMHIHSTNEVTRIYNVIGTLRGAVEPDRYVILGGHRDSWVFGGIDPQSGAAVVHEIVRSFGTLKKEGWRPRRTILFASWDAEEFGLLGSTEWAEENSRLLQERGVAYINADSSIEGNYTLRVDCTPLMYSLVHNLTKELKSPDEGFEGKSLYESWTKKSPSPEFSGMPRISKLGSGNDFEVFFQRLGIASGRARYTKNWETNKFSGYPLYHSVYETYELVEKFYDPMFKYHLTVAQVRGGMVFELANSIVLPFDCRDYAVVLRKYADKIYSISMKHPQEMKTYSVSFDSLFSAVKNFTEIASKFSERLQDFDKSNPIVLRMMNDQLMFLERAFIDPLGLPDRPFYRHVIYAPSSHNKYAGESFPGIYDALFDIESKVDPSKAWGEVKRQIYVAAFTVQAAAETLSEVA

PSMA [2] = target: T1, PSMA; assay: fluorescence-based PSMA inhibition assay (NAAG hydrolysis, Amplex Red); format: biochemical; details: for Ki: LNCaP cell lysates, 4 μM NAAG, Cheng-Prusoff conversion; for increase in binding affinity (Ki) compared to monovalent 1: relative to compound 1
Procedure: PSMA inhibition constant (Ki) values for 1 - 3 were determined using a fluorescence-based PSMA inhibition assay. […] Compound 6 was radiolabeled with ^99mTc and its biological properties were tested in vivo [34].
The PSMA inhibitory activities of 1 - 3 and [^113/115In]3 were determined using a fluorescence-based assay according to a previously reported procedure. Briefly, lysates of LNCaP cell extracts (25 μL) were incubated with the inhibitor (12.5 μL) in the presence of 4 μM NAAG (12.5 μL) for 120 min. The amount of glutamate released upon hydrolysis of NAAG was measured by incubating with a working solution (50 μL) of the Amplex Red Glutamic Acid Kit (Life Technologies, Grand Island, NY) for 60 min. Fluorescence was measured with a VICTOR3V multilabel plate reader (Perkin Elmer Inc., Waltham, MA) with excitation at 530 nm and emission at 560 nm. […] Assays were performed in triplicate. Enzyme inhibitory constants (Ki values) were generated using the Cheng-Prusoff conversion. Data analysis was performed using GraphPad Prism version 4.00 for Windows (GraphPad Software, San Diego, CA).

| Ki (PSMA [2]) | increase in binding affinity (Ki) compared to monovalent 1 (PSMA [2]) | Compound | Ki (PSMA [1]) |
| --- | --- | --- | --- |
|  |  | NC(Cc1cn(CCCCC(NC(=O)CCCCCCC(=O)NCCCC[C@H](NC(=O)N[C@@H](CCC(=O)O)C(=O)O)C(=O)O)C(=O)O)nn1)C(=O)O (stereo partly drawn) [Compound 6] | 920 pM |
| 80 pM | 11 fold and ~ 11 fold | O=C(O)CC[C@H](NC(=O)N[C@@H](CCCCNC(=O)CCCCCCC(=O)NC(CCCCn1cc(C(=O)NCCCCC(NC(=O)c2cn(CCCCC(NC(=O)CCCCCCC(=O)NCCCC[C@H](NC(=O)N[C@@H](CCC(=O)O)C(=O)O)C(=O)O)C(=O)O)nn2)C(=O)NC(CCCCNC(=O)CN2CCN(CC(=O)O)CCN(CC(=O)O)CCN(CC(=O)O)CC2)C(=O)O)nn1)C(=O)O)C(=O)O)C(=O)O (stereo partly drawn) [Compound 3] |  |
| 100 pM | 5 fold and ~ 5 fold | NCCCCC(NC(=O)C(CCCCNC(=O)c1cn(CCCCC(NC(=O)CCCCCCC(=O)NCCCC[C@H](NC(=O)N[C@@H](CCC(=O)O)C(=O)O)C(=O)O)C(=O)O)nn1)NC(=O)c1cn(CCCCC(NC(=O)CCCCCCC(=O)NCCCC[C@H](NC(=O)N[C@@H](CCC(=O)O)C(=O)O)C(=O)O)C(=O)O)nn1)C(=O)O (stereo partly drawn) [Compound 2] |  |
| 900 pM and 910 pM |  | [N-]=[N+]=NCCCCC(NC(=O)CCCCCCC(=O)NCCCC[C@H](NC(=O)N[C@@H](CCC(=O)O)C(=O)O)C(=O)O)C(=O)O (stereo partly drawn) [Compound 1, (3S,7S)-26-Azido-5,13,20-trioxo-4,6,12,21-tetraazahexacosane-1,3,7,22-tetracarboxylic acid] |  |
